In PMC13626384 (Journal of medicinal chemistry, 2025):
Like-named read-outs stand apart in the source and are kept apart here.

Tests used:
D283-med cell line = assay: Cytotoxicity against D283-med cells; format: cell-based, human
[1] = PAMPA-BBB permeability assay; settings: PAMPA-BBB
[2] = target: human immunoproteasome (i20S) β1 (Homo sapiens, UniProt P28065+P40306); assay: Proteasome subunit inhibition, i20S β1; format: biochemical; settings: read-out: i20S β1 IC50 ± SD; read 60 to 90 minutes after start
Plasma stability = format: in vitro ADME; settings: mouse plasma
[3] = target: human immunoproteasome (i20S) β5 (Homo sapiens, UniProt P20618+P28062); assay: Proteasome subunit inhibition, i20S β5; format: biochemical; settings: read-out: i20S β5 IC50 ± SD; read 60 to 90 minutes after start
H460 cell line = assay: Cytotoxicity against H460 cells; format: cell-based; settings: read-out: H460 IC50; non-small cell lung cancer cell line
SF188 cell line = assay: Cytotoxicity against SF188 cells; format: cell-based, human
[4] = target: human immunoproteasome (i20S) β2 (Homo sapiens, UniProt P40306+P49720); assay: Proteasome subunit inhibition, i20S β2; format: biochemical; settings: read-out: i20S β2 IC50 ± SD; read 60 to 90 minutes after start
[5] = Caco-2 cell permeability and efflux; format: in vitro ADME, human; settings: human, Caco-2
[6] = Liver microsomal stability; settings: mouse liver microsomes
Caco-2 cells = assay: Caco-2 cell permeability and efflux; format: in vitro ADME, human
[7] = read-out: D283-med IC50, medulloblastoma cell line
[8] = read-out: SF188 IC50, glioblastoma cell line

CC(C)C[C@H](NC(=O)[C@@H]1Cc2c(F)c(F)c(c(F)c2F)Sc2cccc(c2)CC(=O)N[C@@H]([C@@H](C)O)C(=O)N1)C(=O)[C@@]1(C)CO1 [Compound 14, (5S,8S)-3^2,3^3,3^5,3^6-Tetrafluoro-8-((R)-1-hydroxyethyl)-N-((S)-4-methyl-1-((R)-2-methyloxiran-2-yl)-1-oxopentan-2-yl)-7,10-dioxo-2-thia-6,9-diaza-1(1,3),3(1,4)-dibenzenacycloundecaphane-5-carboxamide]
IC50 (D283-med cell line; [7]): 20 ± 1 nM | % Recovery [1]: 53% | Mean Permeability [1]: 3.75 10^−6 cm/sec | Pe (effective permeability) [1]: around 4 10^−6 cm s^−1 | IC50 [2]: 310 ± 39.5 nM | Plasma Stability % remaining (Plasma stability; after 5 hr): more than 75% | IC50 [3]: 858 ± 342 nM | IC50 (H460 cell line): 186 ± 52 nM | IC50 (SF188 cell line; [8]): 40 ± 9 nM | IC50 [4]: 1060 ± 171 nM

C[C@H]1O[C@@H](O[C@H]2[C@@H](O)C[C@H](O[C@H]3[C@@H](O)C[C@H](O[C@H]4CC[C@@]5(C)[C@H](CC[C@@H]6[C@@H]5C[C@@H](O)[C@]5(C)[C@@H](C7=CC(=O)OC7)CC[C@]65O)C4)O[C@@H]3C)O[C@@H]2C)C[C@H](O)[C@@H]1O [Digoxin, reference compound]
Papp A→B [5]: 1.3 ×10⁻⁶ cm/s | Papp B→A [5]: 13 ×10⁻⁶ cm/s

CC(C)C[C@H](NC(=O)[C@@H]1Cc2ccc(cc2)OCCCCCC(=O)N[C@@H](C(C)C)C(=O)N1)C(=O)[C@@]1(C)CO1 [Compound 33, (10S,13S)-10-Isopropyl-N-((S)-4-methyl-1-((R)-2-methyloxiran-2-yl)-1-oxopentan-2-yl)-8,11-dioxo-2-oxa-9,12-diaza-1(1,4)-benzenacyclotetradecaphane-13-carboxamide]
IC50 (D283-med cell line; [7]): 10.1 ± 2.1 nM | % Recovery [1]: 87% | Mean Permeability [1]: 1.49 10^−6 cm/sec | IC50 [2]: 81.7 ± 8.6 nM | IC50 [3]: 32.9 ± 5.9 nM | IC50 (H460 cell line): 53 ± 15 nM | IC50 (SF188 cell line; [8]): 12.2 ± 0.4 nM | IC50 [4]: 67.4 ± 8.4 nM

CC(C)C[C@H](NC(=O)[C@@H]1Cc2c(F)c(F)c(c(F)c2F)S(=O)(=O)c2cccc(c2)CC(=O)N[C@@H](C(C)(C)O)C(=O)N1)C(=O)[C@@]1(C)CO1 [Compound 24, (5S,8S)-3^2,3^3,3^5,3^6-Tetrafluoro-8-(2-hydroxypropan-2-yl)-N-((S)-4-methyl-1-((R)-2-methyloxiran-2-yl)-1-oxopentan-2-yl)-7,10-dioxo-2-thia-6,9-diaza-1(1,3),3(1,4)-dibenzenacycloundecaphane-5-carboxamide 2,2-dioxide]
IC50 (D283-med cell line; [7]): 54 ± 2 nM | % Recovery [1]: 79% | Mean Permeability [1]: 2.06 10^−6 cm/sec | IC50 (H460 cell line): 410 ± 59 nM | IC50 (SF188 cell line; [8]): 100 ± 7 nM

CC(C)CC(NC(=O)C1Cc2c(F)c(F)c(c(F)c2F)S(=O)(=O)c2cccc(c2)CC(=O)NC(C(C)C)CC(=O)N1)C(=O)C1(C)CO1 [Compound 25, (5S,9S)-3^2,3^3,3^5,3^6-Tetrafluoro-9-isopropyl-N-((S)-4-methyl-1-((R)-2-methyloxiran-2-yl)-1-oxopentan-2-yl)-7,11-dioxo-2-thia-6,10-diaza-1(1,3),3(1,4)-dibenzenacyclododecaphane-5-carboxamide 2,2-dioxide]
IC50 (D283-med cell line; [7]): > 15000 nM | IC50 (H460 cell line): > 15000 nM | IC50 (SF188 cell line; [8]): > 15000 nM

CC(C)C[C@H](NC(=O)[C@@H]1Cc2c(F)c(F)c(c(F)c2F)S(=O)(=O)c2cccc(c2)CC(=O)N[C@@H]([C@H](C)O)C(=O)N1)C(=O)[C@@]1(C)CO1 [Compound 27, (5S,8S)-3^2,3^3,3^5,3^6-Tetrafluoro-8-((S)-1-hydroxyethyl)-N-((S)-4-methyl-1-((R)-2-methyloxiran-2-yl)-1-oxopentan-2-yl)-7,10-dioxo-2-thia-6,9-diaza-1(1,3),3(1,4)-dibenzenacycloundecaphane-5-carboxamide 2,2-dioxide]
IC50 (D283-med cell line; [7]): 28 ± 10 nM | % Recovery [1]: 88% | Mean Permeability [1]: 1.40 10^−6 cm/sec | IC50 (H460 cell line): 360 ± 56 nM | IC50 (SF188 cell line; [8]): 72 ± 10 nM

CC(C)C[C@H](NC(=O)[C@@H]1CSCCCCCCCCCC(=O)N[C@@H](C(C)C)C(=O)N1)C(=O)[C@@]1(C)CO1 [Compound 39]
IC50 (D283-med cell line; [7]): 14.8 ± 2.3 nM | Microsomal Stability Clearance Category [6]: Medium | Microsomal Stability mCLint [6]: 33 µL/min/mg | Microsomal Stability t1/2 [6]: 42 min | % Recovery [1]: 44% | Mean Permeability [1]: 3.43 10^−6 cm/sec | Pe (effective permeability) [1]: around 4 10^−6 cm s^−1 | IC50 [2]: 99 ± 8.4 nM | Plasma Stability % remaining (Plasma stability; after 2 hr): 87 after 2 hr % | Plasma Stability % remaining (Plasma stability; after 5 hr): more than 75% | IC50 [3]: 63.9 ± 7.2 nM | Efflux Ratio (Caco-2 cells; Caco-2): 1.5 | % Recovery (A-B) (Caco-2 cells; Caco-2, A-B direction): 67% | % Recovery (B-A) (Caco-2 cells; Caco-2, B-A direction): 74% | Pe (A-B) (Caco-2 cells; Caco-2, apical to basolateral): 9.8 10^−6 cm/sec | Pe (B-A) (Caco-2 cells; Caco-2, basolateral to apical): 14.6 10^−6 cm/sec | IC50 (H460 cell line): 79 ± 21 nM | IC50 (SF188 cell line; [8]): 20 ± 3 nM | IC50 [4]: 45.3 ± 3.1 nM

CC(C)C[C@H](NC(=O)[C@@H]1Cc2ccc(cc2)S(=O)(=O)CCCCCC(=O)NC(C(C)C)C(=O)N1)C(=O)[C@@]1(C)CO1 (stereo partly drawn) [Compound 38, (13S)-10-Isopropyl-N-((S)-4-methyl-1-((R)-2-methyloxiran-2-yl)-1-oxopentan-2-yl)-8,11-dioxo-2-thia-9,12-diaza-1(1,4)-benzenacyclotetradecaphane-13-carboxamide 2,2-dioxide]
IC50 (D283-med cell line; [7]): 16 ± 2 nM | % Recovery [1]: 99% | Mean Permeability [1]: 0.27 10^−6 cm/sec | IC50 (H460 cell line): 287 ± 42 nM | IC50 (SF188 cell line; [8]): 157 ± 45 nM

Cn1cc(CNCC2CCN(c3ncc(C(=O)NO)cn3)CC2)c2ccccc21 [Quisinostat, reference compound]
IC50 (D283-med cell line; Homo sapiens, D283 Med, read-out: D283-med IC50, medulloblastoma cell line): 30 to 43 nM | IC50 (D283-med cell line; [7]): 37 ± 2 nM | IC50 (H460 cell line): 30 ± 3 nM | IC50 (SF188 cell line; Homo sapiens, SF-188, read-out: SF188 IC50, glioblastoma cell line): 30 to 43 nM | IC50 (SF188 cell line; [8]): 43 ± 2 nM

CC(C)C[C@H](NC(=O)[C@@H]1Cc2c(F)c(F)c(c(F)c2F)Sc2cccc(c2)CC(=O)NCC(=O)N1)C(=O)[C@@]1(C)CO1 [Compound 21, (S)-32,33,35,36-Tetrafluoro-N-((S)-4-methyl-1-((R)-2-methyloxiran-2-yl)-1-oxopentan-2-yl)-7,10-dioxo-2-thia-6,9-diaza-1(1,3),3(1,4)-dibenzenacycloundecaphane-5-carboxamide]
IC50 (D283-med cell line; [7]): 5000 nM | IC50 (H460 cell line): > 15000 nM | IC50 (SF188 cell line; [8]): > 15000 nM

CC(C)C[C@H](NC(=O)[C@@H]1Cc2c(F)c(F)c(c(F)c2F)[S+]([O-])c2cccc(c2)CC(=O)N[C@@H](C(C)(C)O)C(=O)N1)C(=O)[C@@]1(C)CO1 (stereo partly drawn) [Compound 23, (5S,8S)-3^2,3^3,3^5,3^6-Tetrafluoro-8-(2-hydroxypropan-2-yl)-N-((S)-4-methyl-1-((R)-2-methyloxiran-2-yl)-1-oxopentan-2-yl)-7,10-dioxo-2-thia-6,9-diaza-1(1,3),3(1,4)-dibenzenacycloundecaphane-5-carboxamide 2-oxide]
IC50 (D283-med cell line; [7]): 176 ± 2 nM | IC50 (H460 cell line): 1640 ± 87 nM | IC50 (SF188 cell line; [8]): 205 ± 21 nM

CC(C)C[C@H](NC(=O)[C@@H]1Cc2c(F)c(F)c(c(F)c2F)Sc2cccc(c2)CC(=O)N[C@H](C(C)C)CC(=O)N1)C(=O)[C@@]1(C)CO1 [Compound 16, (5S,9S)-3^2,3^3,3^5,3^6-Tetrafluoro-9-isopropyl-N-((S)-4-methyl-1-((R)-2-methyloxiran-2-yl)-1-oxopentan-2-yl)-7,11-dioxo-2-thia-6,10-diaza-1(1,3),3(1,4)-dibenzenacyclododecaphane-5-carboxamide]
IC50 (D283-med cell line; [7]): 6090 nM | IC50 (H460 cell line): > 15000 nM | IC50 (SF188 cell line; [8]): > 15000 nM

CC(C)C[C@H](NC(=O)[C@@H]1Cc2c(F)c(F)c(c(F)c2F)Sc2cccc(c2)CC(=O)N[C@@H](C(C)C)CC(=O)N1)C(=O)[C@@]1(C)CO1 [Compound 17, (5S,9R)-3^2,3^3,3^5,3^6-Tetrafluoro-9-isopropyl-N-((S)-4-methyl-1-((R)-2-methyloxiran-2-yl)-1-oxopentan-2-yl)-7,11-dioxo-2-thia-6,10-diaza-1(1,3),3(1,4)-dibenzenacyclododecaphane-5-carboxamide]
IC50 (D283-med cell line; [7]): 1800 nM | IC50 (H460 cell line): 5380 nM | IC50 (SF188 cell line; [8]): 2460 nM

CC(C)C[C@H](NC(=O)[C@@H]1Cc2ccc(cc2)SCCCCCC(=O)NC(C)(C)C(=O)N1)C(=O)[C@@]1(C)CO1 [Compound 36, (S)-10,10-Dimethyl-N-((S)-4-methyl-1-((R)-2-methyloxiran-2-yl)-1-oxopentan-2-yl)-8,11-dioxo-2-thia-9,12-diaza-1(1,4)-benzenacyclotetradecaphane-13-carboxamide]
IC50 (D283-med cell line; [7]): 1440 nM | IC50 (H460 cell line): 2330 nM | IC50 (SF188 cell line; [8]): 2260 nM
